Source: patent US20250090627A1, “NUTRITIONAL POLYPEPTIDE HAVING BRANCHED-STRUCTURE WITH EFFICIENT BROAD-SPECTRUM ANTIBACTERIAL AND ANTIFUNGAL FUNCTIONS” (ZHEJIANG UNIVERSITY, priority 2022, published 2025)

How the values were obtained:
Staphylococcus aureus = experiment: antibacterial effect, polypeptide co-cultured with microbe; format: cell-based; conditions: polypeptide 250 μg/mL; 10^8 CFU/mL; co-cultured at 37° C. for 24 hours
[1] = test system: methicillin-resistant Staphylococcus aureus; experiment: antibacterial effect against drug-resistant bacteria; format: cell-based; conditions: 100 μg/mL
Procedure: The above polypeptide (prepared by Method 1) was added in methicillin-resistant Staphylococcus aureus solutions at concentrations of 10^8 and 10^9 CFU/mL respectively according to the polypeptide concentration gradient, and then co-cultured at 37° C. for 24 hours. The polypeptide was effective in killing methicillin-resistant Staphylococcus aureus in the effective concentration range. The antimicrobial rate of 100 μg/mL of polypeptide solution could reach up to 100% (FIG. 2) and 98% or more (FIG. 3) respectively.

Escherichia coli = experiment: antibacterial effect, polypeptide co-cultured with microbe; format: cell-based; conditions: polypeptide 250 μg/mL; 10^8 CFU/mL; co-cultured at 37° C. for 24 hours
Candida albicans = experiment: as above; format: cell-based; conditions: polypeptide 250 μg/mL; 10^8 CFU/mL; co-cultured at 37° C. for 24 hours
rats [2] = experiment: in vivo hemocompatibility after caudal vein injection, blood routine examination
Procedure: (§1) The polypeptide (prepared by Method 1) of the present disclosure was dissolved in physiological saline at a concentration of 1 mg/mL and injected into rats through the caudal vein at a dose of 8 mg/kg.

rats [3] = experiment: safety (acute systemic inflammation) after caudal vein injection, blood routine examination; format: in vivo
Procedure: as §1

Pseudomonas aeruginosa = experiment: antibacterial effect, polypeptide co-cultured with microbe; format: cell-based; conditions: polypeptide 250 μg/mL; 10^8 CFU/mL; co-cultured at 37° C. for 24 hours
fibroblasts = experiment: cell viability of fibroblasts, Cell Counting Kit-8; format: cell-based; conditions: DMEM with 10% fetal bovine serum, 48 h, effective concentration range (FIG. 4)
Procedure: The polypeptide (prepared by Method 2) of the disclosure was added at different concentrations to Dulbecco's Modified Eagle's Medium (DMEM) containing fetal bovine serum (10% by volume) and used to culture fibroblasts. Cells were seeded at 10,000 cells per well in 96-well plates, incubated at 37° C. with a medium containing polypeptides at various concentrations as described above, and the cell viability was determined after 48 h using the Cell Counting Kit-8 method.

[4] = MRSA 10^8 CFU/mL, 37° C. 24 hours (FIG. 2)
[5] = MRSA 10^9 CFU/mL, 37° C. 24 hours (FIG. 3)
[6] = 1 mg/mL in physiological saline, caudal vein, 8 mg/kg, 24 h
[7] = rat blood 24 h after 8 mg/kg caudal vein injection
[8] = rat blood, 24 h after 8 mg/kg caudal vein injection (FIG. 5)

Work on “hyperbranched polylysine [polypeptide (prepared by Method 1)]” yielded an antibacterial effect (Staphylococcus aureus) of 100%, an antimicrobial rate [1, 4] of 100% and an antimicrobial rate [1, 5] of no less than 98%. For the same compound, the antibacterial effect (Escherichia coli) was 100%, the antibacterial effect (Candida albicans) was 100% and the behavior of rats (rats [2]; [6]) was “no abnormal behavior”. The survival of rats (rats [2]; [6]) was “survived”, the “concentration of hemoglobin (HGB), in words” value (rats [2]; [7]) was “in the normal range” and the “concentration of platelet (PLT), in words” value (rats [2]; [7]) was “in the normal range”. For the same compound, the “concentration of red blood cell (RBC), in words” value (rats [2]; [7]) was “in the normal range”, the “Red blood cell concentration” value (rats [2]; rat blood 24 h after injection at 1 mg/mL (8 mg/kg), normal range 6.36-9.42) was 6.3 ± 0.3 10^12/L and the Hemoglobin content (rats [2]; rat blood 24 h after injection at 1 mg/mL (8 mg/kg), normal range 110-143) was 141.8 ± 10.1 g/L. The Platelet concentration (rats [2]; rat blood 24 h after injection at 1 mg/mL (8 mg/kg), normal range 450-1590) was 847.0 ± 140.1 10^9/L, the behavior of rats (rats [3]; [6]) was “no abnormal behavior” and the survival of rats (rats [3]; 1 mg/mL in physiological saline, caudal vein, 8 mg/kg, after 24 h) was “still alive”. The inflammatory features (rats [3]; rat blood routine examination, 24 h after 8 mg/kg caudal vein injection) was “no inflammatory features”, the “cell concentration of lymphocytes (Lym)” value (rats [3]; [8]) was “in the normal range” and the “cell concentration of monocytes (Mon)” value (rats [3]; [8]) was “in the normal range”. The “cell concentration of neutrophils (Neu)” value (rats [3]; [8]) was “in the normal range”, the “cell concentration of white blood cells (WBC)” value (rats [3]; [8]) was “in the normal range” and the antibacterial effect (Pseudomonas aeruginosa) was 100%.

For “hyperbranched polylysine [polypeptide (prepared by Method 2)]”, the “cytotoxicity (cell viability)” value (fibroblasts) was “not cytotoxic”.

With `CC1(C)S[C@@H]2[C@H](NC(=O)Cc3ccccc3)C(=O)N2[C@H]1C(=O)O` [penicillin G, reference compound] the antimicrobial rate [1, 4] was “less than 10%” and the antimicrobial rate [1, 5] was “less than 10%”.
